# Where “and” joins values, the source holds several entries; their conditions need not be identical. Equal values may be shown once.
# What was measured:
# [1] = test system: surface TNF alpha on human T cells; assay: Surface TNF alpha expression on T cells by FACS (gating on CD3+ cells); details: for surface TNF alpha, overall MFI: 20 mM NAC without or with 20 mM BT; for surface TNF alpha expression, Time Course: each drug 20 mM; for TNF alpha in T cells, % Total / TNF alpha in T cells, MFI: marker All
# [2] = test system: surface TNF alpha on human monocytes; assay: Surface TNF alpha expression on monocytes by FACS (CD14+ cells); format: cell-based; details: all drugs 20 mM
# Source text: The effect of NAC and BT, alone or in combination, on surface TNF alpha expression by stimulated or unstimulated monocytes (prepared from PBM) was examined. […] Table 6. While only a small proportion of T cells from each donor were responsive to the combination NAC/BT, the effect on surface TNF alpha expression in monocytes was significant.
# [3] = test system: soluble TNF alpha release from human lymphocytes; assay: Soluble TNF alpha in supernatants by ELISA; details: Media (unstimulated); drugs 20 mM; ELISA standard curve in pg/mL, unit not given
# human PBMCs [4] = assay: PBMC proliferation by 3H-thymidine incorporation; format: cell-based
# Description: Treatment with 0.14 mM Taurox-SB increased proliferation of human PBMCs with and without PHA, as detected by incorporation of 3H-thymidine (Table 18).
# Human PBMCs are obtained through collection of peripheral blood and isolation over Ficoll 1077. The cells are counted and 5×10^5 cells are plated in triplicate in 96 well plates in 100 μl of media (RPMI 1640, 20% FBS) containing specified conditions. These cells are then allowed to incubate for 48 hours. After this incubation 1 μCi of ^3H-Thymidine is added in a […] volume. The plates are incubated an additional 24 hours and harvested on a Tomtec plate harvester and the filtermat read in a scintillation counter. Many studies have been performed using the drugs in combination with PHA (T cell stimulant (mitogen)) obtained from Sigma.
# T cells = assay: Ca++ mobilization kinetics with fluo-3AM; format: cell-based; details: final concentrations 0.14 mM to 1.4 mM; eight minute time period; data not shown
# Description: The kinetics of Ca++ mobilization was observed using the dye fluo-3AM which is a membrane permeable Ca++ indicator which becomes increasingly fluorescent upon Ca++ binding. A baseline reading indicates the resting state of Ca++, followed by injection of Taurox-SB to yield final concentrations of 0.14 mM to 1.4 mM. […] PHA was added as a positive control for the elicitation of a Ca++ response (Greimers et al., 1996). […] (Data not shown.) The role of the second messenger response could be varied, as many proteins are activated by Ca++-regulated intracellular pathways. Second messengers may serve to enhance production of cytokines by immune cells.
# Cloudman S-91 cells = assay: CTL lysis of Cloudman S-91 targets (CMFDA leakage); format: cell-based, DBA/2 mouse; details: CTLs generated using 0.14 M Taurox-SB in addition to IL-6/IL-12; 10:1 effector:target, 16 hours
# Description: The analysis was extended to include killing of the Cloudman S-91 targets used for the CTL generation. Cloudman S-91 cells (5×104) were loaded with chloromethylfluorescein diacetate (CMFDA) and incubated for 16 hours with CTLs generated from DBA/2 splenocytes at a 10:1 effector:target ratio. Lysis was detected by leakage of the CMFDA.
# human PBMCs [5] = assay: Cell cycle analysis; format: cell-based; details: 18 and 24 hours of exposure
# HUT-78 T cell line = assay: CD69 expression by flow cytometry, HUT-78; format: cell-based
# Description: (§1) CD69 Expression. CD69 expression was assessed by flow cytometry as described previously. […] CD69 is one of the earliest stimulation markers expressed on T cells upon activation (Testi et al., 1994). The cross-linking of this marker is believed to generate extracellular Ca++ influxes and activate phospholipase A2, and thus it is believed to be an integral part of the activation process (Testi et al., 1994).
# MOLT-4 T cell line = assay: CD69 expression by flow cytometry, MOLT-4; format: cell-based
# Description: as §1
# [6] = test system: surface TNF alpha on human monocytes; assay: Surface TNF alpha expression on monocytes by FACS (CD14+ cells); format: cell-based; details: for Monocyte TNF alpha surface expression, % Positive: fluorescence greater than isotype control peak
# PBMC = assay: CD69 expression by flow cytometry, PBMC T cells; format: cell-based; details: for CD69 Expression, MFI of 10,000 events: PBMC
# Description: as §1
# [7] = test system: Cytokine mRNA from T cells (PBMC); assay: RNase protection assay of cytokine mRNA in PBMC (T cells), with or without PMA/ionomycin; details: 6 hours, unit not given
# [8] = air and aqueous solutions; cited from earlier work
# [9] = With PMA + Ionomycin stimulation, 1.4 mM TSB, 16 hours
# [10] = With PMA + Ionomycin stimulation, .14 mM TSB, 16 hours
# [11] = Without stimulation, 1.4 mM TSB, 16 hours
# [12] = Without stimulation, .14 mM TSB, 16 hours
# [13] = Taurox-SB 14 nM, no stimulation
# [14] = Taurox-SB 14 nM, with stimulation
# [15] = Taurox-SB 1.4 uM, no stimulation
# [16] = Taurox-SB 1.4 uM, with stimulation
# [17] = Taurox-SB 1.4 mM, no stimulation
# [18] = Taurox-SB 1.4 mM, with stimulation
smiles,measurement,setting,value
"CC(=O)N[C@@H](CS)C(=O)O [NAC, N-acetyl-L-cysteine, reference compound]","surface TNF alpha, overall MFI","[1]; NAC + Stimulation (1 micromolar Ionomycin, 10 ng/ml PMA), individual donors",25.32 and 31.12 and 95.45 and 53.48 and 17.39 and 12.59
same,"surface TNF alpha, overall MFI",[1]; NAC + Stimulation with 1 ng PMA,11.31 and 12.76
same,"surface TNF alpha expression, Time Course","[1]; Pma/iono, 6 hours",82
same,"surface TNF alpha expression, Time Course","[1]; Pma/iono, 16 hours",93
same,"surface TNF alpha expression, Time Course","[1]; Pma/iono, 24 hours",101
same,"surface TNF alpha expression, Time Course","[1]; Pma/iono, 42 hours",113
same,"surface TNF alpha expression, Time Course","[1]; Pma/iono, 68 hours",80
same,"surface TNF alpha, overall MFI","[1]; no stimulation, individual donors",24.7 and 6.96 and 17.49 and 6.34 and 6.68
same,"surface TNF alpha expression, Time Course","[1]; unstimulated, 6 hours",20
same,"surface TNF alpha expression, Time Course","[1]; unstimulated, 16 hours",33
same,"surface TNF alpha expression, Time Course","[1]; unstimulated, 24 hours",39
same,"surface TNF alpha expression, Time Course","[1]; unstimulated, 42 hours",56
same,"surface TNF alpha expression, Time Course","[1]; unstimulated, 68 hours",47
same,surface TNF alpha expression,[2]; stimulated monocytes,relative ineffectiveness
same,surface TNF alpha expression,[2]; unstimulated monocytes,not upregulated
same,Soluble TNF,[3],15
"O=C(CCNC(=O)OCc1ccccc1)NCCS(=O)(=O)O [Taurox-SB, carbobenzoxy beta-alanyl taurine]","PBMC Proliferation, mean cpm ± SD","human PBMCs [4]; 0.14 mM, No PHA",2964 ± 684 cpm
same,"PBMC Proliferation, mean cpm ± SD","human PBMCs [4]; 0.14 mM, PHA 10 μg/ml",5538 ± 597 cpm
same,viability,human PBMCs [4]; 1.4 mM,slight reduction in viability
same,"PBMC Proliferation, mean cpm ± SD","human PBMCs [4]; .014 mM, No PHA",1346 ± 70 cpm
same,"PBMC Proliferation, mean cpm ± SD","human PBMCs [4]; .014 mM, PHA 10 μg/ml",4794 ± 652 cpm
same,"TNF alpha in T cells, % Total",[1]; [9],88.89%
same,"TNF alpha in T cells, MFI",[1]; [9],85.04
same,"TNF alpha in T cells, % Total",[1]; [10],85.64%
same,"TNF alpha in T cells, MFI",[1]; [10],169.68
same,"TNF alpha in T cells, % Total",[1]; [11],72.09%
same,"TNF alpha in T cells, MFI",[1]; [11],25.34
same,"TNF alpha in T cells, % Total",[1]; [12],78.07%
same,"TNF alpha in T cells, MFI",[1]; [12],20.18
same,Ca++ mobilization,T cells,rising or sustained
same,lysis of Cloudman S-91 targets,Cloudman S-91 cells,73%
same,cell cycle distribution,human PBMCs [5],increase in the proportion of cells in G2/M
same,"CD69 Expression, MFI of 10,000 events","HUT-78 T cell line; HUT-78 + PHA, 1.4 mM",409
same,"CD69 Expression, MFI of 10,000 events","HUT-78 T cell line; HUT-78, 1.4 mM",278
same,"CD69 Expression, MFI of 10,000 events","MOLT-4 T cell line; MOLT-4 + PHA, 1.4 mM",547
same,"CD69 Expression, MFI of 10,000 events","MOLT-4 T cell line; MOLT-4, 1.4 mM",208
same,"Monocyte TNF alpha surface expression, % Positive",[6]; PMA/iono + Taurox-SB 1.4 mM,59% and 53% and 57% and 36%
same,"Monocyte TNF alpha surface expression, % Positive","[6]; Taurox-SB 1.4 mM, no PMA/iono",9% and 3%
same,"Monocyte TNF alpha surface expression, MFI","[6]; Taurox-SB 1.4 mM, no PMA/iono, separate experiments",19.91 and 16.68 and 10.95
same,"CD69 Expression, MFI of 10,000 events",PBMC; 1.4 mM,7
same,"CD69 Expression, MFI of 10,000 events",PBMC; 14 mM,11
same,CD69 expression,"PBMC; T cells, concentrations less than 1.4 mM",without effect
same,Effect on GAPDH message,[7]; [13],−20.94
same,Effect on IFNg message,[7]; [13],21.53
same,Effect on Ltb message,[7]; [13],29.83
same,Effect on TGFb1 message,[7]; [13],17.51
same,Effect on TNFa message,[7]; [13],2.10
same,Effect on TNFb message,[7]; [13],62.96
same,Effect on GAPDH message,[7]; [14],−8.10
same,Effect on IFNg message,[7]; [14],−32.73
same,Effect on Ltb message,[7]; [14],12.29
same,Effect on TGFb1 message,[7]; [14],−10.25
same,Effect on TNFa message,[7]; [14],−15.96
same,Effect on TNFb message,[7]; [14],22.72
same,Effect on GAPDH message,[7]; [15],−8.16
same,Effect on IFNg message,[7]; [15],16.76
same,Effect on Ltb message,[7]; [15],21.09
same,Effect on TGFb1 message,[7]; [15],29.61
same,Effect on TNFa message,[7]; [15],21.27
same,Effect on TNFb message,[7]; [15],311.16
same,Effect on GAPDH message,[7]; [16],4.88
same,Effect on IFNg message,[7]; [16],−9.85
same,Effect on Ltb message,[7]; [16],2.92
same,Effect on TGFb1 message,[7]; [16],−0.09
same,Effect on TNFa message,[7]; [16],48.67
same,Effect on TNFb message,[7]; [16],4.18
same,Effect on GAPDH message,[7]; [17],4.96 _
same,Effect on IFNg message,[7]; [17],388.08
same,Effect on Ltb message,[7]; [17],85.61
same,Effect on TGFb1 message,[7]; [17],36.89
same,Effect on TNFa message,[7]; [17],461.93
same,Effect on TNFb message,[7]; [17],373.82
same,Effect on GAPDH message,[7]; [18],−38.75
same,Effect on IFNg message,[7]; [18],−64.90
same,Effect on Ltb message,[7]; [18],234.28
same,Effect on TGFb1 message,[7]; [18],−25.88
same,Effect on TNFa message,[7]; [18],−100.00
same,Effect on TNFb message,[7]; [18],20.95
NCCC(=O)NCCS [beta-aletheine],stability,[8],unstable in air and aqueous solutions
